The NIST ThermoML archive (doi:10.1016/j.jct.2015.03.015)
± gives the expanded uncertainty stated by the source.

Conditions: Crystal, Transpiration method

For `Cc1c[nH]c(=O)[nH]c1=O` [thymine], the “vapor or sublimation pressure” value (426.4 K) was 0.00061 ± 5e-05 kPa, the “vapor or sublimation pressure” value (430.5 K) was 0.00086 ± 7e-05 kPa and the “vapor or sublimation pressure” value (436.2 K) was 0.00134 ± 0.0001 kPa. The “vapor or sublimation pressure” value (440.5 K) was 0.00183 ± 0.00012 kPa, the “vapor or sublimation pressure” value (447.6 K) was 0.00314 ± 0.0002 kPa and the “vapor or sublimation pressure” value (450.8 K) was 0.00397 ± 0.00025 kPa. For the same compound, the “vapor or sublimation pressure” value (456.5 K) was 0.00601 ± 0.00043 kPa, the “vapor or sublimation pressure” value (460.6 K) was 0.00813 ± 0.00056 kPa and the “vapor or sublimation pressure” value (464.8 K) was 0.01106 ± 0.00073 kPa. For the same compound, the “vapor or sublimation pressure” value (468.9 K) was 0.01464 ± 0.00095 kPa and the “vapor or sublimation pressure” value (472.3 K) was 0.01767 ± 0.0011 kPa.

For `O=c1cc[nH]c(=O)[nH]1` [2,4(1H,3H)-pyrimidinedione], the “vapor or sublimation pressure” value (424 K) was 0.00022 ± 2e-05 kPa, the “vapor or sublimation pressure” value (434.1 K) was 0.00051 ± 4e-05 kPa and the “vapor or sublimation pressure” value (440 K) was 0.00086 ± 7e-05 kPa. For the same compound, the “vapor or sublimation pressure” value (446 K) was 0.00135 ± 0.0001 kPa, the “vapor or sublimation pressure” value (451.9 K) was 0.00212 ± 0.00015 kPa and the “vapor or sublimation pressure” value (457.7 K) was 0.00317 ± 0.0002 kPa. For the same compound, the “vapor or sublimation pressure” value (462.6 K) was 0.0047 ± 0.0003 kPa, the “vapor or sublimation pressure” value (467.4 K) was 0.00673 ± 0.00046 kPa and the “vapor or sublimation pressure” value (472.4 K) was 0.00905 ± 0.0006 kPa.
